Measurements reported in patent US6033913A, “Detection of ligand Interaction with polymeric material” (New York University, priority 1997, dated 2000).
pKd: −log10 of the molar value.

Tests used:
concanavalin A [1] = biological target: T1, concanavalin A (Canavalia ensiformis, UniProt P02866); experiment: biochemical; type: binding; parameters: purchased Sigma, St. Louis, Mo; conditions: for tension change on removal of divalent cations: buffer 1 exchanged for buffer 2 (without MnCl2 and CaCl2, both removed together)
Source text: (§1) Referring again to FIGS. 4 and 5: With a sample strip S mounted between the tips of the arms 148, 168, and reference solution L flowing in the well 210, mechanochemical testing of the sample S is ready to begin. Testing itself consists of two stages. In the first (preparative) stage, the strip is stretched until a maximum spring constant of the strip is obtained, and then is allowed to relax under isometric conditions until a constant level of isometric tension is reached. Isometric condition herein means keeping a fixed distance between tips of the arms 148 and 146. In the second stage relaxed strip is brought into contact with ligand solution and ligand-induced changes of the isometric tension and spring constant are measured.
At the testing stage, ligand-induced changes in F and κ are measured after an exchange in the flow cell of reference solution for that containing ligands. These parameters by themselves can be used to detect binding. However, they also allow estimation of a practically important parameter: ligand-induced strain, εL=(L-L1)/L0, where L1 is the length of the sample in the ligand solution when no force is applied. This can also be calculated by the formula
Ligands are added at the moment indicated by arrows in FIGS. 12, 14, and 16.
A strip of concanavalin A, (Sigma, St. Louis, Mo.) was prepared as described in Example 1 for hexokinase, mounted on the arms 148, 146 and extended by 1.2% in buffer 1 (10 mM HEPES buffer, pH=7.5, containing 0.1 M NaCl and 0.1 mM MnCl2 and CaCl2 each). After relaxation solutions with 0.25 mM, 1.25 mM, 5 mM and 10 mM of methyl-α-D-mannopyranoside (MP) on the same buffer 1 were introduced into the well 210 at the moments indicated by arrows in the FIG. 14.

yeast hexokinase = experiment: Mechanochemical test of yeast hexokinase film with glucose (isometric tension and compliance); type: binding
Source text: as §1
Spring constant is measured by applying small deformations to the strip with an amplitude AL much smaller than (L-L0). These deformations cause tension oscillations with amplitude of ΔF. […]
At the testing stage, ligand-induced changes in F and κ are measured after an exchange in the flow cell of reference solution for that containing ligands. […] This can also be calculated by the formula
A film of yeast hexokinase (Sigma Chemical Company, St. Louis, Mo.) was prepared. […] Changes in elasticity and isometric tension in the sample were measured at the moments indicated by arrows and changes in tension and in modulus resulted from such exchange of solutions were measured. […]

concanavalin A [2] = biological target: T1, concanavalin A; conditions: as compared to MP; Biochem. Biophys. Acta, 165:398 (1968); cited from earlier work

## O=C(O)CN(CCN(CC(=O)O)CC(=O)O)CC(=O)O [EDTA]
Concanavalin A [1]
  tension change on addition of EDTA: reduces tension still more
  tension change on introduction of EDTA-free buffer 2 after EDTA: does not affect tension

## CO[C@H]1O[C@H](CO)[C@@H](O)[C@H](O)[C@@H]1O [MP, methyl-α-D-mannopyranoside]
Concanavalin A [1]
  pKd: 3.52
Concanavalin A [1]; 10 mM MP in buffer 2
  tension change on ligand addition without divalent cations: reversible drop of tension by ΔF2, similar to the effect, ΔF1, in buffer 1
Concanavalin A [1]; buffer 1, 0.25, 1.25, 5 and 10 mM MP
  isometric tension change on ligand addition: reduce progressively the isometric tension
Concanavalin A [1]; return to buffer 1
  reversibility of MP-induced decrease in tension: completely reversible

## OC[C@H]1OC(O)[C@H](O)[C@@H](O)[C@@H]1O (stereo partly drawn) [glucose]
Concanavalin A [1]; 5 mM glucose
  tension change on introduction of glucose: very small tension changes
Yeast hexokinase; Lineweaver-Burk plot, FIG. 13
  inverse tension changes against inverse glucose concentration: linear relationship
Yeast hexokinase; hexokinase film strip, varying glucose concentration, 10 mM HEPES, pH=7.5, 0.1 NaCl, extended 2.8%
  changes in isometric tension and compliance: large but reversible changes
Concanavalin A [2]
  ability of binding concanavalin A compared to MP: much lower ability of binding concanavalin A

## [Ca+2].[Cl-].[Cl-] [CaC12, CaCl2]
Concanavalin A [1]
  tension change on removal of divalent cations: considerable decrease of tension

## [Cl][Mn][Cl] [MnCl2]
Concanavalin A [1]
  tension change on removal of divalent cations: considerable decrease of tension
